These results are taken from US20250115558A1, “PYRIDAZINE DERIVATIVES AND RELATED USES” (NodThera Limited, priority 2023, published 2025).

What is called IC50 is the point on the concentration scale where inhibition reaches its midpoint. Lower therefore signals greater potency in that assay.

Structures can show the parent of a compound that is named as a salt. Some results are limits rather than exact numbers.

Test [1] deals with THP-1. Kind of test: THP-1 IC50 assay. The test is classed as cell-based. As to conditions: Homo sapiens; THP-1 cells.
Test [2] concerns IL-1β release upon NLRP3 activation in peripheral blood mononuclear cells (PBMC). Nature of the test: PBMC IC50 Determination Assay. The test is classed as cell-based. The note with it: Homo sapiens; inhibition of IL-1β release; LPS-primed PBMC stimulated with ATP or nigericin. As to the method: The compounds of the present disclosure were tested for their inhibitory activity against IL-1β release upon NLRP3 activation in peripheral blood mononuclear cells (PBMC).
Protocol A. PBMC were isolated from buffy coats by density gradient centrifugation on Histopaque-1077 (Sigma, cat no. 10771). Isolated cells were seeded into the wells of a 96-well plate and incubated for 3 h with lipopolysaccharide (LPS). Following medium exchange, the compounds of the present disclosure were added (a single compound per well) and the cells were incubated for 30 min. Next, the cells were stimulated either with ATP (5 mM) or nigericin (10 μM) for 1 h and the cell culture media from the wells were collected for further analysis.
The release of IL-1β into the media was determined by a quantitative detection of IL-1β in the media using an IL-1β enzyme-linked immunosorbent assay (ELISA) Ready-SET-Go!, eBioscience cat. No. 88-7261-88. Briefly, in a first step, high affinity binding plates (Corning, Costar 9018 or NUNC Maxisorp Cat No. 44-2404) were coated overnight at 4° C. with specific capture antibody included in the kit (anti-human IL-1β ref. 14-7018-68). Subsequently, plates were blocked with blocking buffer for 1 h at room temperature (rt) and after washing with a buffer (PBS with 0.05% Tween-20) incubated with protein standard and culture media. After 2 h of incubation at rt, plates were washed and incubated with biotinylated detection antibody included in the kit (anti-human IL-1β Biotin ref. 33-7110-68) for 1 h at rt. Plates were washed and incubated with HRP-streptavidin for 30 min at rt and washed again. The signal was developed after addition of 3,3′,5,5′-tetramethylbenzidine-peroxidase (TMB) until colour appeared and the reaction was stopped by 2 M H2SO4. A microplate spectrophotometer (BioTek) was used to detect signals with 450 nm. The detection range of IL-1β ELISA was […].
Protocol B. PBMC were isolated from buffy coats by density gradient centrifugation on Histopaque-1077 (Sigma, cat no. 10771). Isolated cells were seeded into the wells (280,000 cells/well) of a 96-well plate and incubated for 3 h with lipopolysaccharide (LPS, 1 μg/mL diluted 1000× from a 1 mg/mL stock solution). The compounds of the present disclosure were added (a single compound per well) and the cells were incubated for 30 min. Next, the cells were stimulated with ATP (5 mM final concentration diluted 20× from a 100 mM stock solution) for 1 h and the cell culture media from the wells were collected for further analysis.
The release of IL-1β into the media was determined by quantitative detection of IL-1β in the media using HTRF®, CisBio cat. No. 62HIL1BPEH. Briefly, cell culture supernatant were dispensed directly into the assay plate containing antibodies labelled with the HTRF® donor and acceptor. A microplate spectrophotometer (BMG) was used to detect signals at 655 nm and 620 nm. The detection range of IL-1β HTRF® was 39-6500 μg/mL.

For the molecule `Cc1cc(C(F)(F)F)cc(O)c1-c1ccc(CN2CCCCC2)nn1` [Compound 135], the IC50 in test [1] and in test [2] was under 500 nM in each case.

As for `Cc1cc(C(F)(F)F)cc(O)c1-c1ccc(CNC2CCOCC2)nn1` [Compound 1, 3-Methyl-2-(6-(((tetrahydro-2H-pyran-4-yl)amino)methyl)pyridazin-3-yl)-5-(trifluoromethyl)phenol], the IC50 in test [1] and in test [2] was 500 to 1000 nM throughout.

On to `Cc1cc(C(F)(F)F)cc(O)c1-c1ccc(COC2CCN(C)CC2)nn1` [Compound 45, 3-Methyl-2-(6-(((1-methylpiperidin-4-yl)oxy)methyl)pyridazin-3-yl)-5-(trifluoromethyl)phenol hydrochloride], for which the IC50 in test [1] and in test [2] was 1000 to 3000 nM each time.

`Cc1cc(CNC2CCOCC2)nnc1-c1ccc(C(F)(F)F)cc1O` [Compound 11, 2-(4-Methyl-6-(((tetrahydro-2H-pyran-4-yl)amino)methyl)pyridazin-3-yl)-5-(trifluoromethyl)phenol]: the IC50 in test [1] and in test [2] was 1000 to 3000 nM throughout.

Take `Cc1cc(C(F)(F)F)cc(O)c1-c1ccc(CNC2CC3(COC3)C2)nn1` [Compound 2, 2-(6-(((2-Oxaspiro[3.3]heptan-6-yl)amino)methyl)pyridazin-3-yl)-3-methyl-5-(trifluoromethyl)phenol]: the IC50 in test [1] and in test [2] was 500 to 1000 nM in each case.

Take `Cc1cc(Cl)cc(O)c1-c1ccc(CN2CCOC2=O)nn1` [Compound 67, 3-((6-(4-Chloro-2-hydroxy-6-methylphenyl)pyridazin-3-yl)methyl)oxazolidin-2-one]: the IC50 in test [1] and in test [2] was under 500 nM each time.

For the molecule `Cc1cc(C(F)(F)F)cc(O)c1-c1ccc(CNC2CCN(C)CC2)nn1` [Compound 110], the IC50 in test [1] and in test [2] was 1000 to 3000 nM throughout.

In the case of `Oc1cc(Cl)cc(Cl)c1-c1ccc(CNC2CCOCC2)nn1` [Compound 36, 3,5-Dichloro-2-(6-(((tetrahydro-2H-pyran-4-yl)amino)methyl)pyridazin-3-yl)phenol], the results for the half-inhibitory concentration (IC50) in test [1] and in test [2] were 1000 to 3000 nM and 500 to 1000 nM, respectively.

`Cc1cc(C(F)(F)F)cc(O)c1-c1ccc(CNCC2CCCO2)nn1` (centres unmarked) [Compound 106]: the values for the IC50 in test [1] and in test [2] were 3000 to 10000 nM and 1000 to 3000 nM, respectively.

As to `Cc1cc(C(F)(F)F)cc(O)c1-c1ccc(CN[C@@H]2CCOC2)nn1` [Compound 32, (R)-3-Methyl-2-(6-(((tetrahydrofuran-3-yl)amino)methyl)pyridazin-3-yl)-5-(trifluoromethyl)phenol], the IC50 is 500 to 1000 nM in test [1] and under 500 nM in test [2].

Consider `Cc1cc(C(F)(F)F)cc(O)c1-c1ccc(CN2CCCC2)nn1` [Compound 133], for which the IC50 in test [1] is 500 to 1000 nM; in test [2] it was under 500 nM.

In the case of `Cc1cc(C(F)(F)F)cc(O)c1-c1ccc(CNC2CC(=O)N(C)C2=O)nn1` (centres unmarked) [Compound 114], the IC50 is 500 to 1000 nM in test [1] and under 500 nM in test [2].

Consider `Cc1cc(C(F)(F)F)cc(O)c1-c1ccc(CN[C@H]2CC[C@@](C)(O)CC2)nn1` [Compound 153], for which the IC50 in test [1] and in test [2] was 1000 to 3000 nM in each case.

Take `Cc1cc(C(F)(F)F)cc(O)c1-c1ccc(CN2CCCCC2=O)nn1` [Compound 151]: the IC50 in test [1] and in test [2] was under 500 nM in each case.

As to `Cc1cc(C(F)(F)F)cc(O)c1-c1ccc(CNc2ccccn2)nn1` [Compound 78, 3-Methyl-2-(6-{[(pyridin-2-yl)amino]methyl}pyridazin-3-yl)-5-(trifluoromethyl)phenol], the IC50 in test [1] and in test [2] was at least 10000 nM throughout.

`Cc1cc(C(F)(F)F)cc(O)c1-c1ccc(CNCc2ccnn2C)nn1` [Compound 126]: the IC50 in test [1] and in test [2] was 1000 to 3000 nM each time.

As to `CC(=O)N1CCC(NCc2ccc(-c3c(C)cc(C(F)(F)F)cc3O)nn2)C1` (centres unmarked) [Compound 24], the IC50 is 500 to 1000 nM in test [1] and under 500 nM in test [2].

On to `CO[C@H]1CCN(Cc2ccc(-c3c(C)cc(Cl)cc3O)nn2)C1` [Compound 61, (S)-5-Chloro-2-(6-((3-methoxypyrrolidin-1-yl)methyl)pyridazin-3-yl)-3-methylphenol], for which the IC50 in test [1] and in test [2] was 1000 to 3000 nM throughout.

As for `CO[C@H]1CCN(Cc2ccc(-c3c(C)cc(C(F)(F)F)cc3O)nn2)C1` [Compound 40, (S)-2-(6-((3-Methoxypyrrolidin-1-yl)methyl)pyridazin-3-yl)-3-methyl-5-(trifluoromethyl)phenol], the IC50 lay within 1000 to 3000 nM in test [1] and 500 to 1000 nM in test [2].

As for `Oc1cc(Cl)ccc1-c1ccc(CNC2CCOCC2)nn1` [Compound 16, 5-Chloro-2-(6-(((tetrahydro-2H-pyran-4-yl)amino)methyl)pyridazin-3-yl)phenol], the IC50 was 1000 to 3000 nM in test [1] and at least 10000 nM in test [2].

As for `COC1CCC(NCc2ccc(-c3c(C)cc(C(F)(F)F)cc3O)nn2)CC1` (centres unmarked) [Compound 140], the IC50 in test [1] was 500 to 1000 nM; in test [2], under 500 nM.

In the case of `Cc1cc(C(F)(F)F)cc(O)c1-c1ccc(CNCC2CCCCO2)nn1` (centres unmarked) [Compound 107], the IC50 in test [1] and in test [2] was 3000 to 10000 nM throughout.

With `Cc1cc(C(F)(F)F)cc(O)c1-c1ccc(CNC2CCCCC2)nn1` [Compound 100], the IC50 in test [1] and in test [2] was 1000 to 3000 nM in each case.

`Cc1cc(-c2ccc(CNC3CCOCC3)nn2)c(O)cc1C(F)(F)F` [Compound 15, 4-Methyl-2-(6-(((tetrahydro-2H-pyran-4-yl)amino)methyl)pyridazin-3-yl)-5-(trifluoromethyl)phenol]: the IC50 in test [1] and in test [2] was at least 10000 nM throughout.

As for `Cc1cc(C(F)(F)F)cc(O)c1-c1ccc(CN[C@@H]2CC(=O)N(C)C2)nn1` [Compound 50, (R)-4-(((6-(2-Hydroxy-6-methyl-4-(trifluoromethyl)phenyl)pyridazin-3-yl)methyl)amino)-1-methylpyrrolidin-2-one], the IC50 in test [1] lay within 3000 to 10000 nM; in test [2], 1000 to 3000 nM.

As to `Cc1cc(C(F)(F)F)cc(O)c1-c1ccc(CNCC(C)(C)O)nn1` [Compound 117], the results for the IC50 in test [1] and in test [2] were 1000 to 3000 nM and 500 to 1000 nM, respectively.

For the molecule `Cc1cc(C(F)(F)F)cc(O)c1-c1ccc(CN(C)C2CCOCC2)nn1` [Compound 129], the IC50 in test [1] and in test [2] was 1000 to 3000 nM each time.

On to `Cc1cc(Cl)cc(O)c1-c1ccc(CN2CCCC2=O)nn1` [Compound 62, 1-[[6-(4-chloro-2-hydroxy-6-methyl-phenyl)pyridazin-3-yl]methyl]pyrrolidin-2-one], for which the IC50 in test [1] and in test [2] was under 500 nM each time.

For the molecule `Cc1cc(C(F)(F)F)cc(O)c1-c1ccc(COC2CCOCC2)nn1` [Compound 17, 3-methyl-2-(6-(((tetrahydro-2H-pyran-4-yl)oxy)methyl)pyridazin-3-yl)-5-(trifluoromethyl)phenol], the IC50 in test [1] lay within 1000 to 3000 nM; in test [2] it was 3000 to 10000 nM.

Regarding `Cc1cc(Cl)cc(O)c1-c1ccc(CN[C@@H]2CCC(=O)N(C)C2)nn1` [Compound 66, (R)-5-(((6-(4-Chloro-2-hydroxy-6-methylphenyl)pyridazin-3-yl)methyl)amino)-1-methylpiperidin-2-one], the values for the IC50 in test [1] and in test [2] were 1000 to 3000 nM and 500 to 1000 nM, respectively.

As for `Cc1cc(C(F)(F)F)cc(O)c1-c1ccc(C[n+]2cccc(N)c2)nn1` [Compound 145], the IC50 fell in the range of 1000 to 3000 nM in test [1] and 3000 to 10000 nM in test [2].

Regarding `CC(=O)N1CCC(NCc2ccc(-c3c(C)cc(C(F)(F)F)cc3O)nn2)CC1` [Compound 142], the IC50 in test [1] was 500 to 1000 nM; in test [2] it was under 500 nM.

For the molecule `Cc1cc(C(F)(F)F)cc(O)c1-c1ccc(CNCc2cnn(C)c2)nn1` [Compound 128], the IC50 in test [1] and in test [2] was 1000 to 3000 nM in each case.

Regarding `Cc1cc(C(F)(F)F)cc(O)c1-c1ccc(CNC2CC(F)(F)C2)nn1` [Compound 143], in test [2], the IC50 is under 500 nM.

`Cc1cnc(NCc2ccc(-c3c(C)cc(C(F)(F)F)cc3O)nn2)o1` [Compound 148] registered an IC50 in test [1] of 1000 to 3000 nM.
